Assay results reported in patent US8106055B2, “Substituted amide compounds” (Gruenenthal GmbH, priority 2007, dated 2012).
Where two headings read alike, the source gives them in different places.

Tests used:
[1] = biological target: T1, human μ opiate receptor (Homo sapiens, UniProt P35372); test: Affinity for the human μ opiate receptor ([3H]-naloxone displacement, CHO-K1 receptor membrane preparation, SPA); type: binding; details: test concentration 1 μM; for inhibition at 1 µM: 1.5 h
T1 construct: purchased PerkinElmer Life Sciences, Zaventem, Belgium RB-HOM; host or cells: CHO-K1 cells (membrane preparation)
Summary of the method: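 At 1 μmol/l, compounds were scored for % displacement of 1 nmol/l [3H]-naloxone from CHO-K1-expressed human μ opiate receptor in a homogeneous SPA format (90 min, room temperature).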

[2] = biological target: T2, bradykinin 1 receptor (B1R) of the rat (Rattus norvegicus, UniProt P97583); test: Functional investigation on the rat bradykinin 1 receptor (B1R), Ca2+ FLIPR assay in CHO K1 rB1R cells; type: cell-based; details: test substance 10 μM, Ca2+ FLIPR, CHO K1 rB1R cells; for inhibition at 10 µM: CHO-K1, B1R antagonism rat, read-out: B1R Ant. r [10 μM] % Inhibition
T2 construct: expressed in transfected cells; host or cells: CHO K1 cells
T2 sequence (P97583 1-337): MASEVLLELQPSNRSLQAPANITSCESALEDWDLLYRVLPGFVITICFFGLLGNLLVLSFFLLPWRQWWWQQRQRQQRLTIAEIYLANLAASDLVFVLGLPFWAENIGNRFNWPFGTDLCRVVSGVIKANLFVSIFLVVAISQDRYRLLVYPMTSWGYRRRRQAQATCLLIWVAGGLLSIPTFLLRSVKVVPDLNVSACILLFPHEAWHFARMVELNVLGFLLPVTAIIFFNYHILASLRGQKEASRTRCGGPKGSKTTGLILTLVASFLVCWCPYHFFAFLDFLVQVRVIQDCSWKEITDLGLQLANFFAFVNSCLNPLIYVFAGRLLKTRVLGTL
Summary of the method: (§1)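 Peak Ca2+-dependent fluorescence in B1R-transfected CHO K1 cells measures antagonism of an EC80 agonist challenge given 10-20 min after compound. Agonist is Lys-Des-Arg9-bradykinin for human, Des-Arg9-bradykinin for rat receptor.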

[3] = biological target: T3, human bradykinin 1 receptor (B1R) (Homo sapiens, UniProt P46663); test: Functional investigation on the human bradykinin 1 receptor (B1R), Ca2+ FLIPR assay in CHO K1 hB1R cells; type: cell-based; details: test substance 10 μM, Ca2+ FLIPR, CHO K1 hB1R cells; for inhibition at 10 µM: CHO-K1, B1R antagonism human, read-out: B1R Ant. h [10 μM] % Inhibition
T3 construct: expressed in transfected cells; host or cells: CHO K1 cells
T3 sequence (P46663 1-353): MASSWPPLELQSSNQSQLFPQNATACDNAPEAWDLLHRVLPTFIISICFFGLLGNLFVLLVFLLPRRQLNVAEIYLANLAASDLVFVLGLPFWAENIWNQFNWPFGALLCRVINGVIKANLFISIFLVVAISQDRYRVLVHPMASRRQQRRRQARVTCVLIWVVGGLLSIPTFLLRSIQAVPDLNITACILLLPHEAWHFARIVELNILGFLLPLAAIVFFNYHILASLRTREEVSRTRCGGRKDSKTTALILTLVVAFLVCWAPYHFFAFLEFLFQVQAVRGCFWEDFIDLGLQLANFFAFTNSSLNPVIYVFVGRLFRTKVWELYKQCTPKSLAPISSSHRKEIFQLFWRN
Summary of the method: as §1

[4] = Table 3, to be read in the same way as Table 1, read-out: μ

T1 sequence (P35372 whole entry): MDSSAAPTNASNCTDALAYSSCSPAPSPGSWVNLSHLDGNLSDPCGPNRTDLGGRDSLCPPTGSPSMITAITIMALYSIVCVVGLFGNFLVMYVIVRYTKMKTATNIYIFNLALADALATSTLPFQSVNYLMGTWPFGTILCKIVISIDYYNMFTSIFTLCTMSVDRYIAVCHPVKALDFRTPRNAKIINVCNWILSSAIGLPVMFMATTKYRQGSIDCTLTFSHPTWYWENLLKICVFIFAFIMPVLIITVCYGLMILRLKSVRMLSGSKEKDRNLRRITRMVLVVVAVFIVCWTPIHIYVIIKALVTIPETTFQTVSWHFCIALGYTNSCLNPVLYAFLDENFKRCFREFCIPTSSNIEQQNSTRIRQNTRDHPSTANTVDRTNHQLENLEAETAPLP

Row | SMILES | inhibition at 1 µM [1, 4] [%] | inhibition at 10 µM [2] [%] | inhibition at 10 µM [3] [%] | μ ([1]; Table 3, to be read in the same way as Table 1) [% inhibition] | B1R Ant. r [10 μM] % Inhibition ([2]; B1R antagonism rat) [%] | B1R Ant. h [10 μM] % Inhibition ([3]; B1R antagonism human) [%] | inhibition at 1 µM ([1]; Table 2, read-out: μ receptor) [%]
1 | COc1cc(C)c(S(=O)(=O)N2CCCC2COCC(=O)NCC2CCC(C(CCc3ccccc3)N3CCCC3)CC2)c(C)c1 (stereo not drawn) [Example 750, 2-((1-(4-methoxy-2,6-dimethylphenylsulfonyl)pyrrolidin-2-yl)methoxy)-N-((4-(3-phenyl-1-(pyrrolidin-1-yl)propyl)cyclohexyl)methyl)acetamide] | 52 | 94 | 101 |  |  |  | 
2 | O=C(COC1CCCN(S(=O)(=O)c2c(Cl)cc(Cl)cc2Cl)C1)NC1CCC(C(CCc2ccccc2)N2CCOCC2)CC1 (stereo not drawn) [Example 672, N-(4-(1-morpholin-3-phenylpropyl)cyclohexyl)-2-(1-(2,4,6-trichlorophenylsulfonyl)piperidin-3-yloxy)acetamide] |  |  |  | 16 | 11 | 18 | 
3 | COc1cc(C)c(S(=O)(=O)N2CCC(OCC(=O)NC3CCC(C(c4ccccc4)N4CCN(C)CC4)CC3)C2)c(C)c1 (stereo not drawn) [Example 688, 2-(1-(4-methoxy-2,6-dimethylphenylsulfonyl)pyrrolidin-3-yloxy)-N-(4-((4-methylpiperazin-1-yl)(phenyl)methyl)cyclohexyl)acetamide] | 20 | 94 | 103 |  |  |  | 
4 | O=C(COC1CCCN(S(=O)(=O)c2c(Cl)cc(Cl)cc2Cl)C1)NCC1CCC(C(CCc2ccccc2)N2CCCC2)CC1 (stereo not drawn) [Example 729, N-((4-(3-phenyl-1-(pyrrolidin-1-yl)propyl)cyclohexyl)methyl)-2-(1-(2,4,6-trichlorophenylsulfonyl)piperidin-3-yloxy)acetamide] | 79 | 22 | 92 |  |  |  | 
5 | O=C(COCC1CCCN(S(=O)(=O)c2c(Cl)cc(Cl)cc2Cl)C1)NCC1CCC(C(CCc2ccccc2)N2CCOCC2)CC1 (stereo not drawn) [Example 758, N-((4-(1-morpholino-3-phenylpropyl)cyclohexyl)methyl)-2-((1-(2,4,6-trichlorophenylsulfonyl)piperidin-3-yl)methoxy)acetamide] | 25 | 107 | 41 |  |  |  | 
6 | COc1cc(C)c(S(=O)(=O)N2CCCC(COCC(=O)NCC3CCC(C(CCc4ccccc4)N4CCCC4)CC3)C2)c(C)c1 (stereo not drawn) [Example 757, 2-((1-(4-methoxy-2,6-dimethylphenylsulfonyl)piperidin-3-yl)methoxy)-N-((4-(3-phenyl-1-(pyrrolidin-1-yl)propyl)cyclohexyl)methyl)acetamide] | 32 | 100 | 103 |  |  |  | 
7 | CN(C)C(c1ccccc1)C1CCC(CNC(=O)CCOCN(C)S(=O)(=O)c2c(Cl)cc(Cl)cc2Cl)CC1 (stereo not drawn) [Example 624, N-[4-(dimethylaminophenylmethyl)-cyclohexylmethyl]-3-{[methyl-(2,4,6-trichlorobenzenesulfonyl)-amino]-methoxy}-propionamide] |  | 81 | 104 |  |  |  | 98
8 | O=C(COCC1CCCCN1S(=O)(=O)c1c(Cl)cc(Cl)cc1Cl)NC1CCC(C(CCc2ccccc2)N2CCOCC2)CC1 (stereo not drawn) [Example 737, N-(4-(1-morpholino-3-phenylpropyl)cyclohexyl)-2-((1-(2,4,6-trichlorophenylsulfonyl)piperidin-2-yl)methoxy)acetamide] | 22 | 56 | 23 |  |  |  | 
9 | COc1cc(C)c(S(=O)(=O)N2CCCC2COCC(=O)NC2CCC(C(c3ccccc3)N3CCN(C)CC3)CC2)c(C)c1 (stereo not drawn) [Example 695, 2-((1-(4-methoxy-2,6-dimethylphenylsulfonyl)pyrrolidin-2-yl)methoxy)-N-(4-((4-methylpiperazin-1-yl)(phenyl)methyl)cyclohexyl)acetamide] | 27 | 103 | 103 |  |  |  | 
10 | CN1CCN(C(c2ccccc2)C2CCC(NC(=O)COCCN(C)S(=O)(=O)c3ccc(Cl)cc3Cl)CC2)CC1 (stereo not drawn) [Example 704, 2-(2-(2,4-dichloro-N-methylphenylsulfonamido)ethoxy)-N-(4-((4-methylpiperazin-1-yl)(phenyl)methyl)cyclohexyl)acetamide] | 27 | 39 | 75 |  |  |  | 
11 | CN(CCOCC(=O)NC1CCC(C(c2ccccc2)N2CCOCC2)CC1)S(=O)(=O)c1c(Cl)cc(C(F)(F)F)cc1Cl (stereo not drawn) [Example 689, 2-(2-(2,6-dichloro-N-methyl-4-(trifluoromethyl)phenylsulfonamido)ethoxy)-N-(4-(morpholino(phenyl)methyl)cyclohexyl)acetamide] | 6 | 39 | 22 |  |  |  | 
12 | O=C(COCC1CCCN(S(=O)(=O)c2c(Cl)cc(Cl)cc2Cl)C1)NC1CCC(C(c2ccccc2)N2CCOCC2)CC1 (stereo not drawn) [Example 703, N-(4-(morpholino(phenyl)methyl)cyclohexyl)-2-((1-(2,4,6-trichlorophenylsulfonyl)piperidin-3-yl)methoxy)acetamide] | 19 | 37 | -4 |  |  |  | 
13 | COc1cc(C)c(S(=O)(=O)N2CCCC(OCC(=O)NCC3CCC(C(CCc4ccccc4)N4CCOCC4)CC3)C2)c(C)c1 (stereo not drawn) [Example 748, 2-(1-(4-methoxy-2,6-dimethylphenylsulfonyl)piperidin-3-yloxy)-N-((4-(1-morpholino-3-phenylpropyl)cyclohexyl)methyl)acetamide] | 20 | 78 | 92 |  |  |  | 
14 | CN(CCOCC(=O)NCC1CCC(C(CCc2ccccc2)N2CCOCC2)CC1)S(=O)(=O)c1c(Cl)cccc1Cl (stereo not drawn) [Example 721, 2-(2-(2,6-dichloro-N-methylphenylsulfonamido)ethoxy)-N-((4-(1-morpholino-3-phenylpropyl)cyclohexyl)methyl)acetamide] | 7 | 57 | 94 |  |  |  | 
15 | CN(CCOCC(=O)NC1CCC(C(c2ccccc2)N2CCOCC2)CC1)S(=O)(=O)c1c(Cl)cccc1Cl (stereo not drawn) [Example 683, 2-(2-(2,6-dichloro-N-methylphenylsulfonamido)ethoxy)-N-(4-(morpholino(phenyl)methyl)cyclohexyl)acetamide] | 5 | 48 | 32 |  |  |  | 
16 | O=C(COCC1CCCN1S(=O)(=O)c1c(Cl)cc(Cl)cc1Cl)NCC1CCC(C(c2ccccc2)N2CCOCC2)CC1 (stereo not drawn) [Example 710, N-((4-(morpholino(phenyl)methyl)cyclohexyl)methyl)-2-((1-(2,4,6-trichlorophenylsulfonyl)pyrrolidin-2-yl)methoxy)acetamide] | 24 | 92 | 42 |  |  |  | 
17 | COc1cc(C)c(S(=O)(=O)N2CCCC(OCC(=O)NCC3CCC(C(c4ccccc4)N4CCCC4)CC3)C2)c(C)c1 (stereo not drawn) [Example 648, 2-(1-(4-methoxy-2,6-dimethylphenylsulfonyl)piperidin-3-yloxy)-N-((4-(phenyl(pyrrolidin-1-yl)methyl)cyclohexyl)methyl)acetamide] | 95 | 98 | 95 |  |  |  | 
18 | CN1CCN(C(c2ccccc2)C2CCC(NC(=O)COCCN(C)S(=O)(=O)c3c(Cl)cccc3Cl)CC2)CC1 (stereo not drawn) [Example 684, 2-(2-(2,6-dichloro-N-methylphenylsulfonamido)ethoxy)-N-(4-((4-methylpiperazin-1-yl)(phenyl)methyl)cyclohexyl)acetamide] | 29 | 61 | 95 |  |  |  | 
19 | O=C(COCC1CCCN(S(=O)(=O)c2c(Cl)cc(Cl)cc2Cl)C1)NC1CCC(C(c2ccccc2)N2CCCC2)CC1 (stereo not drawn) [Example 633, N-(4-(phenyl(pyrrolidin-1-yl)methyl)cyclohexyl)-2-((1-(2,4,6-trichlorophenylsulfonyl)piperidin-3-yl)methoxy)acetamide] | 91 | 63 | 55 |  |  |  | 
